Experimental data: patent US12103926B2, “Compounds for treating huntington's disease” (PTC THERAPEUTICS, INC., priority 2018, dated 2024)

Each molecule was assayed on Endogenous Huntingtin Protein (assay: Endogenous Huntingtin Protein Assay (ELISA-based MSD electrochemiluminescence assay)). Conditions: MW1 (expanded polyglutamine) or MAB2166 capture antibody; lysates.
Assay type: cell-based
Procedure: Compounds of Formula (I) were tested using the Meso Scale Discovery (MSD) Assay provided in International Application No. PCT/US2016/066042, filed on Dec. 11, 2016 and claiming priority to United States Provisional Application U.S. 62/265,652 filed on Dec. 10, 2015, the entire contents of which are incorporated herein by reference.
The Endogenous Huntingtin Protein assay used in Example 1 was developed using the ELISA-based MSD electrochemiluminescence assay platform.
Endogenous Huntingtin Protein Assay
Meso Scale Discovery (MSD) 96-well or 384-well plates were coated overnight at 4° C. with MW1 (expanded polyglutamine) or MAB2166 monoclonal antibody (for capture) at a concentration of 1 μg/mL in PBS (30 μL per well). Plates were then washed three times with 300 μL wash buffer (0.05% Tween-20 in PBS) and blocked (100 μL blocking buffer; 5% BSA in PBS) for 4-5 hours at room temperature with rotational shaking and then washed three times with wash buffer.
Samples (25 μL) were transferred to the antibody-coated MSD plate and incubated overnight at 4° C. After removal of the lysates, the plate was washed three times with wash buffer, and 25 μL of #5656S (Cell signaling; rabbit monoclonal) secondary antibody (diluted to 0.25 μg/mL in 0.05% Tween-20 in blocking buffer) was added to each well and incubated with shaking for 1 Hour at room temperature. Following incubation with the secondary antibody, the wells were rinsed with wash buffer after which 25 μL of goat anti-rabbit SULFO TAG secondary detection antibody (required aspect of the MSD system) (diluted to 0.25 μg/mL in 0.05% Tween-20 in blocking buffer) was added to each well and incubated with shaking for 1 hour at room temperature. After rinsing three times with wash buffer, 150 μL of read buffer T with surfactant (MSD) were added to each empty well, and the plate was imaged on a SI 6000 imager (MSD) according to manufacturers' instructions provided for 96- or 384-well plates.
Work on `CC1(C)CC(Oc2cnc(-c3ccc(-c4cn[nH]c4)c(F)c3F)cn2)CC(C)(C)N1` [Cpd 10, 2-[2,3-difluoro-4-(1H-pyrazol-4-yl)phenyl]-5-[(2,2,6,6-tetramethylpiperidin-4-yl)oxy]pyrazine] yielded an IC50 of 1000 to 3000 nM. For `CN(c1cnc(-c2cc(F)c(-c3cn[nH]c3)cc2F)cn1)C1CC(C)(C)NC(C)(C)C1` [Cpd 15, 5-[2,5-difluoro-4-(1H-pyrazol-4-yl)phenyl]-N-methyl-N-(2,2,6,6-tetramethylpiperidin-4-yl)pyrazin-2-amine], the IC50 was under 100 nM. `CC1(C)CC(Oc2cnc(-c3ccc(-c4cn[nH]c4)cc3O)cn2)CC(C)(C)N1` [Cpd 2, 5-(1H-pyrazol-4-yl)-2-{5-[(2,2,6,6-tetramethylpiperidin-4-yl)oxy]pyrazin-2-yl}phenol] showed an IC50 of 500 to 1000 nM. For `CC(C)(C)NC1CCN(c2cnc(-c3ccc(-c4cn[nH]c4)cc3O)cn2)C1` (stereo not shown) [Cpd 52, 2-{5-[3-(tert-butylamino)pyrrolidin-1-yl]pyrazin-2-yl}-5-(1H-pyrazol-4-yl)phenol], the IC50 was under 100 nM. Molecule `CN(c1cnc(-c2cc(Cl)c(-c3cn[nH]c3)cc2Cl)cn1)C1CC(C)(C)NC(C)(C)C1` [Cpd 4, 5-[2,5-dichloro-4-(1H-pyrazol-4-yl)phenyl]-N-methyl-N-(2,2,6,6-tetramethylpiperidin-4-yl)pyrazin-2-amine] has an IC50 of 1000 to 3000 nM. For `CN(c1cnc(-c2ccc(-c3ccn(C)c(=O)c3)cc2O)cn1)C1CC(C)(C)NC(C)(C)C1` [Cpd 18, 4-(3-hydroxy-4-{5-[methyl(2,2,6,6-tetramethylpiperidin-4-yl)amino]pyrazin-2-yl}phenyl)-1-methylpyridin-2(1H)-one], the IC50 was 1000 to 3000 nM. In the case of `Oc1cc(-c2cn[nH]c2)ccc1-c1cnc(OC2CCNCC2)cn1` [Cpd 7, 2-{5-[(piperidin-4-yl)oxy]pyrazin-2-yl}-5-(1H-pyrazol-4-yl)phenol], the IC50 is reported as 1000 to 3000 nM. `CC(C)(C)NC1CCN(c2cnc(-c3ccc(-c4c[nH]nc4F)cc3O)cn2)C1` (stereo not shown) [Cpd 65, 2-{5-[3-(tert-butylamino)pyrrolidin-1-yl]pyrazin-2-yl}-5-(3-fluoro-1H-pyrazol-4-yl)phenol] gave an IC50 of under 100 nM. `[2H]C([2H])([2H])n1cc(-c2ccc(-c3cnc(N(C)C4CC(C)(C)NC(C)(C)C4)cn3)c(O)c2)cn1` [Cpd 28, 5-[1-(^2H3)methyl-1H-pyrazo1-4-yl]-2-{5-[methyl(2,2,6,6-tetramethylpiperidin-4-yl)amino]pyrazin-2-yl}phenol] showed an IC50 of 500 to 1000 nM. For `CN(c1cnc(-c2cc(F)c(-c3cn[nH]c3)c(F)c2)cn1)C1CC(C)(C)NC(C)(C)C1` [Cpd 17, 5-[3,5-difluoro-4-(1H-pyrazol-4-yl)phenyl]-N-methyl-N-(2,2,6,6-tetramethylpiperidin-4-yl)pyrazin-2-amine], the IC50 was 100 to 500 nM. With `CC1(C)CC(Nc2cnc(-c3ccc(-c4cc[nH]n4)cc3O)cn2)CC(C)(C)N1` [Cpd 58, 5-(1H-pyrazol-3-yl)-2-{5-[(2,2,6,6-tetramethylpiperidin-4-yl)amino]pyrazin-2-yl}phenol] the IC50 was 100 to 500 nM. Work on `Cc1cn(-c2ccc(-c3cnc(N(C)C4CC(C)(C)NC(C)(C)C4)cn3)c(F)c2F)cn1` [Cpd 41, 5-[2,3-difluoro-4-(4-methyl-1H-imidazol-1-yl)phenyl]-N-methyl-N-(2,2,6,6-tetramethylpiperidin-4-yl)pyrazin-2-amine] yielded an IC50 of 500 to 1000 nM. In the case of `CN(c1cnc(-c2ccc(-c3cn[nH]c3)cc2O)cn1)C1CC(C)(C)NC(C)(C)C1` [Cpd 26, 2-{5-[methyl(2,2,6,6-tetramethylpiperidin-4-yl)amino]pyrazin-2-yl}-5-(1H-pyrazol-4-yl)phenol], the IC50 is reported as under 100 nM. With `CN(c1cnc(-c2ccc(-c3cnn(C)c3)cc2O)cn1)C1CC(C)(C)NC(C)(C)C1` [Cpd 27, 5-(1-methyl-1H-pyrazol-4-yl)-2-{5-[methyl(2,2,6,6-tetramethylpiperidin-4-yl)amino]pyrazin-2-yl} phenol] the IC50 was 100 to 500 nM. In the case of `CN(c1cnc(-c2cc(C#N)c(-c3cn[nH]c3)cc2F)cn1)C1CC(C)(C)NC(C)(C)C1` [Cpd 24, 4-fluoro-5-{5-[methyl(2,2,6,6-tetramethylpiperidin-4-yl)amino]pyrazin-2-yl}-2-(1H-pyrazol-4-yl)benzonitrile], the IC50 is reported as under 100 nM. Work on `CN(c1cnc(-c2cc(F)c(-c3cn[nH]c3)cc2O)cn1)C1CC(C)(C)NC(C)(C)C1` [Cpd 22, 4-fluoro-2-{5-[methyl(2,2,6,6-tetramethylpiperidin-4-yl)amino]pyrazin-2-yl}-5-(1H-pyrazol-4-yl)phenol] yielded an IC50 of under 100 nM. For `CC1(C)CC(Nc2cnc(-c3ccc(-n4cc(F)cn4)cc3O)cn2)CC(C)(C)N1` [Cpd 59, 5-(4-fluoro-1H-pyrazol-1-yl)-2-{5-[(2,2,6,6-tetramethylpiperidin-4-yl)amino]pyrazin-2-yl}phenol], the IC50 was 1000 to 3000 nM. `CC1(C)CC(Nc2cnc(-c3ccc(-c4cn[nH]c4F)cc3O)cn2)CC(C)(C)N1` [Cpd 57, 5-(5-fluoro-1H-pyrazol-4-yl)-2-{5-[(2,2,6,6-tetramethylpiperidin-4-yl)amino]pyrazin-2-yl}phenol] showed an IC50 of under 100 nM. Molecule `CN(c1cnc(-c2ccc(-c3cn[nH]c3)c(F)c2)cn1)C1CC(C)(C)NC(C)(C)C1` [Cpd 16, 5-[3-fluoro-4-(1H-pyrazol-4-yl)phenyl]-N-methyl-N-(2,2,6,6-tetramethylpiperidin-4-yl)pyrazin-2-amine] has an IC50 of 500 to 1000 nM.
